Measurements published in patent publication US20040049075A1, “Process for the production of calcium pantothenate” (priority 2000, published 2004).

Assay: Moisture absorption test
Assay type: physicochemical
Settings: 40° C. and 75% RH; nonhygroscopic defined in b24 as moisture absorption 2% or less after 24 hours
Description: The term “crystalline” used in the specification encompasses a substance containing a small amount of an amorphous part, as well as a substance substantially consisting completely of crystals. However, calcium pantothenate in a completely amorphous state (the state which gives substantially no detectable peak by the powder X-ray diffraction analysis) is excluded. The term “crystalline” should not be interpreted to exclude a substance containing a small amount of an amorphous part. Further, the term “amorphous” means a state in which no peak is substantially detectable by powder X-ray diffraction analysis. The term “nonhygroscopic” used in the specification means that a moisture absorption amount is 2% or less, preferably 1% or less, after 24 hours at 40° C. under a relative humidity of 75%. A moisture absorption test was performed under conditions of 40° C. and 75% RH for the PC consisting of α-form crystals obtained in Example 1 and the PC consisting of β-form crystals obtained in Example 7. A similar test was performed for the amorphous PC used in Example 1 as a control.

hygroscopicity (verdict of moisture absorption test): nonhygroscopic
Substance: monocalcium bis[(R)-N-(2,4-dihydroxy-3,3-dimethylbutyryl)-β-alaninate]
